Measurements: patent US12344600B2, “c-Myc mRNA translation modulators and uses thereof in the treatment of cancer” (Anima Biotech Inc., priority 2022, dated 2025)

system: c-Myc; assay: c-Myc immunofluorescence assay; assay type: cell-based, human; settings: A549 cells, 24 hours, anti-c-Myc immunofluorescence
Procedure, shortened: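 A549 NSCLC cells grown 48 h, then treated 24 h with increasing compound concentrations; fixed in 4% paraformaldehyde, stained with anti-c-Myc antibody plus fluorescent secondary and DAPI. Per-cell c-Myc fluorescence quantified by high-content imaging at 20×; dose-response fitted by logistic regression to give EC50.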

SMILES	Myc Efficacy (−LogEC50)
C#Cc1cccc(CN2CCC(CNC(=O)C3CCN(c4nc(-c5ccc(OC)cc5)no4)CC3)C2)c1 (centres unmarked) [Compound 324, N-((1-(3-ethynylbenzyl)pyrrolidin-3-yl)methyl)-1-(3-(4-methoxyphenyl)-1,2,4-oxadiazol-5-yl)piperidine-4-carboxamide]	++ (++ ≥5 and <6)
COc1ccc(-c2noc(N3CCC(C(=O)NCC4CCN(Cc5ccccn5)C4)CC3)n2)cc1 (centres unmarked) [Compound 340, 1-(3-(4-methoxyphenyl)-1,2,4-oxadiazol-5-yl)-N-((1-(pyridin-2-ylmethyl)pyrrolidin-3-yl)methyl)piperidine-4-carboxamide]	++ (++ ≥5 and <6)
COc1ccc(-c2noc(N3CCC(C(=O)N[C@@H](C)c4ccccc4F)CC3)n2)cc1 [Compound 266, (S)-N-(1-(2-fluorophenyl)ethyl)-1-(3-(4-methoxyphenyl)-1,2,4-oxadiazol-5-yl)piperidine-4-carboxamide]	+ (+ >3 and <5)
COc1ccc(-c2noc(N3CCC(C(=O)NCC4CCN(C[C@H]5CCCCN5C)C4)CC3)n2)cc1 (stereo partly drawn) [Compound 414, 1-(3-(4-methoxyphenyl)-1,2,4-oxadiazol-5-yl)-N-((1-(((R)-1-methylpiperidin-2-yl)methyl)pyrrolidin-3-yl)methyl)piperidine-4-carboxamide]	+ (+ >3 and <5)
COc1ccc(-c2noc(N3CCC(C(=O)NCC4CCN(Cc5cscn5)C4)CC3)n2)cc1 (centres unmarked) [Compound 360, 1-(3-(4-methoxyphenyl)-1,2,4-oxadiazol-5-yl)-N-((1-(thiazol-4-ylmethyl)pyrrolidin-3-yl)methyl)piperidine-4-carboxamide]	+ (+ >3 and <5)
COc1ccc(-c2noc(N3CCC(C(=O)Nc4ccccc4C)CC3)n2)cc1 [Compound 213, 1-(3-(4-methoxyphenyl)-1,2,4-oxadiazol-5-yl)-N-(o-tolyl)piperidine-4-carboxamide]	+ (+ >3 and <5)
COc1ccc(-c2noc(N3CCC(C(=O)NCC4CCN(Cc5cncc(F)c5)C4)CC3)n2)cc1 (centres unmarked) [Compound 333, N-((1-((5-fluoropyridin-3-yl)methyl)pyrrolidin-3-yl)methyl)-1-(3-(4-methoxyphenyl)-1,2,4-oxadiazol-5-yl)piperidine-4-carboxamide]	+ (+ >3 and <5)
COc1ccc(-c2noc(N3CCC(C(=O)NCCCN4CCC(C)CC4)CC3)n2)cc1 [Compound 140, 1-(3-(4-methoxyphenyl)-1,2,4-oxadiazol-5-yl)-N-(3-(4-methylpiperidin-1-yl)propyl)piperidine-4-carboxamide]	+ (+ >3 and <5)
COc1ccc(-c2noc(N3CCC(C(=O)NCC4CCN(Cc5ccc(C)cn5)C4)CC3)n2)cc1 (centres unmarked) [Compound 223, 1-(3-(4-methoxyphenyl)-1,2,4-oxadiazol-5-yl)-N-((1-((5-methylpyridin-2-yl)methyl)pyrrolidin-3-yl)methyl)piperidine-4-carboxamide]	++ (++ ≥5 and <6)
COc1ccc(-c2cc(N3CCC(C(=O)N4CCOCC4)CC3)on2)cc1 [Compound 183, (1-(3-(4-methoxyphenyl)isoxazol-5-yl)piperidin-4-yl)(morpholino)methanone]	+ (+ >3 and <5)
CNC(=O)N1CCN(c2nc(-c3ccc(OC)cc3)no2)CC1 [Compound 191, 4-(3-(4-methoxyphenyl)-1,2,4-oxadiazol-5-yl)-N-methylpiperazine-1-carboxamide]	+ (+ >3 and <5)
COc1ccc(-c2noc(N3CCC(C(=O)NCC4CCN(CC5CC5(C)C)C4)CC3)n2)cc1 (centres unmarked) [Compound 337, N-((1-((2,2-dimethylcyclopropyl)methyl)pyrrolidin-3-yl)methyl)-1-(3-(4-methoxyphenyl)-1,2,4-oxadiazol-5-yl)piperidine-4-carboxamide]	++ (++ ≥5 and <6)
COc1ccc(-c2noc(N3CCC(C(=O)NC4CCN(C)CC4)CC3)n2)cc1 [Compound 218, 1-(3-(4-methoxyphenyl)-1,2,4-oxadiazol-5-yl)-N-(1-methylpiperidin-4-yl)piperidine-4-carboxamide]	− (− ≤3)
COc1ccc(-c2noc(N3CCC(C(=O)NC[C@@H]4CCN(Cc5ccc(C)cc5)C4)CC3)n2)cc1 [Compound 107, (S)-1-(3-(4-methoxyphenyl)-1,2,4-oxadiazol-5-yl)-N-((1-(4-methylbenzyl)pyrrolidin-3-yl)methyl)piperidine-4-carboxamide]	+ (+ >3 and <5)
CCc1ccc(CNC(=O)C2CCN(c3nc(-c4ccc(Cl)cc4)no3)CC2)cc1 [Compound 103, 1-(3-(4-chlorophenyl)-1,2,4-oxadiazol-5-yl)-N-(4-ethylbenzyl)piperidine-4-carboxamide]	+ (+ >3 and <5)
CCCN1CCN(C(=O)C2CCN(c3nc(-c4ccc(OC)cc4)no3)CC2)CC1 [Compound 104, (1-(3-(4-methoxyphenyl)-1,2,4-oxadiazol-5-yl)piperidin-4-yl)(4-propylpiperazin-1-yl)methanone]	+ (+ >3 and <5)

SMILES	Myc Efficacy (−LogEC50)
O=C(NCCCN1CCC(Cc2ccccn2)CC1)C1CCN(c2nc(-c3ccc(OC(F)(F)F)cc3)no2)CC1 [Compound 435, N-(3-(4-(pyridin-2-ylmethyl)piperidin-1-yl)propyl)-1-(3-(4-(trifluoromethoxy)phenyl)-1,2,4-oxadiazol-5-yl)piperidine-4-carboxamide]	+++ (+++ ≥6)
COc1ccc(-c2noc(N3CCC(C(=O)NCC4CCN(C5CCCOCC5)C4)CC3)n2)cc1 (centres unmarked) [Compound 400, 1-(3-(4-methoxyphenyl)-1,2,4-oxadiazol-5-yl)-N-((1-(oxepan-4-yl)pyrrolidin-3-yl)methyl)piperidine-4-carboxamide]	+ (+ >3 and <5)
COc1ccc(-c2noc(N3CCC(C(=O)NC4COC5(CCCCC5)C4)CC3)n2)cc1 (centres unmarked) [Compound 290, 1-(3-(4-methoxyphenyl)-1,2,4-oxadiazol-5-yl)-N-(1-oxaspiro[4.5]decan-3-yl)piperidine-4-carboxamide]	+ (+ >3 and <5)
O=C(NCCCN1CCC(Cc2ccccn2)CC1)N1CCN(c2nc(-c3ccc(C(F)F)cc3)no2)CC1 [Compound 460, 4-(3-(4-(difluoromethyl)phenyl)-1,2,4-oxadiazol-5-yl)-N-(3-(4-(pyridin-2-ylmethyl)piperidin-1-yl)propyl)piperazine-1-carboxamide]	+++ (+++ ≥6)
COc1ncc(-c2noc(N3CCC(C(=O)NCC4CCN(Cc5ccc(C)cc5)C4)CC3)n2)cn1 (centres unmarked) [Compound 232, 1-(3-(2-methoxypyrimidin-5-yl)-1,2,4-oxadiazol-5-yl)-N-((1-(4-methylbenzyl)pyrrolidin-3-yl)methyl)piperidine-4-carboxamide]	+ (+ >3 and <5)
COc1ccc(-c2noc(N3CCC(C(=O)NCc4ccccn4)CC3)n2)cc1 [Compound 115, 1-(3-(4-methoxyphenyl)-1,2,4-oxadiazol-5-yl)-N-(pyridin-2-ylmethyl)piperidine-4-carboxamide]	− (− ≤3)
CCCN1CCC(NC(=O)C2CCN(c3nc(-c4ccc(OC)cc4)no3)CC2)CC1 [Compound 251, 1-(3-(4-methoxyphenyl)-1,2,4-oxadiazol-5-yl)-N-(1-propylpiperidin-4-yl)piperidine-4-carboxamide]	− (− ≤3)
Cc1ccc(CN2CCC(CNC(=O)N3CCN(c4nc(-c5ccc(OCC(O)CO)cc5)no4)CC3)C2)cc1 (centres unmarked) [Compound 473, 4-(3-(4-(2,3-dihydroxypropoxy)phenyl)-1,2,4-oxadiazol-5-yl)-N-((1-(4-methylbenzyl)pyrrolidin-3-yl)methyl)piperazine-1-carboxamide]	+ (+ >3 and <5)
COc1ccc(-c2noc(N3CCC(C(=O)N4CCOCC4)CC3)n2)cc1 [Compound 139, (1-(3-(4-methoxyphenyl)-1,2,4-oxadiazol-5-yl)piperidin-4-yl)(morpholino)methanone]	+ (+ >3 and <5)
C#CCCC1(CCOc2ccc(-c3noc(N4CCC(C(=O)NCC5CCN(Cc6ccc(C)cc6)C5)CC4)n3)cc2)N=N1 (centres unmarked) [Compound 287, 1-(3-(4-(2-(3-(but-3-yn-1-yl)-3H-diazirin-3-yl)ethoxy)phenyl)-1,2,4-oxadiazol-5-yl)-N-((1-(4-methylbenzyl)pyrrolidin-3-yl)methyl)piperidine-4-carboxamide]	+++ (+++ ≥6)
COc1ccc(-c2noc(N3CCC(C(=O)N4CCN(C)CC4)CC3)n2)cc1 [Compound 204, (1-(3-(4-methoxyphenyl)-1,2,4-oxadiazol-5-yl)piperidin-4-yl)(4-methylpiperazin-1-yl)methanone]	+ (+ >3 and <5)
COc1ccc(-c2noc(N3CCC(C(=O)NC4CCN(C)c5ccccc54)CC3)n2)cc1 (centres unmarked) [Compound 302, 1-(3-(4-methoxyphenyl)-1,2,4-oxadiazol-5-yl)-N-(1-methyl-1,2,3,4-tetrahydroquinolin-4-yl)piperidine-4-carboxamide]	+ (+ >3 and <5)
COc1ccc(-c2noc(N3CCC(C(=O)NCc4cc5cccnc5[nH]4)CC3)n2)cc1 [Compound 418, N-((1H-pyrrolo[2,3-b]pyridin-2-yl)methyl)-1-(3-(4-methoxyphenyl)-1,2,4-oxadiazol-5-yl)piperidine-4-carboxamide]	+ (+ >3 and <5)
COc1ccc(-c2noc(N3CCC(C(=O)N[C@H]4[C@@H]5CN(C)C[C@@H]54)CC3)n2)cc1 [Compound 295, 1-(3-(4-methoxyphenyl)-1,2,4-oxadiazol-5-yl)-N-((1R,5S,6s)-3-methyl-3-azabicyclo[3.1.0]hexan-6-yl)piperidine-4-carboxamide]	+ (+ >3 and <5)
COc1ccc(-c2noc(N3CCC(C(=O)NCc4ccc(Cl)cc4)CC3)n2)cc1 [Compound 123, N-(4-chlorobenzyl)-1-(3-(4-methoxyphenyl)-1,2,4-oxadiazol-5-yl)piperidine-4-carboxamide]	+ (+ >3 and <5)
COc1ccc(-c2noc(N3CCC(C(=O)Nc4ccc(Cl)cc4)CC3)n2)cc1 [Compound 192, N-(4-chlorophenyl)-1-(3-(4-methoxyphenyl)-1,2,4-oxadiazol-5-yl)piperidine-4-carboxamide]	+ (+ >3 and <5)
